# Like-named read-outs stand apart in the source and are kept apart here.
# Tests used:
# [1] = biological target: Plasmepsin-2 (PM-2; Plm II) (Plasmodium falciparum (isolate HB3), UniProt P46925); assay: Plasmepsin-2 enzyme inhibition assay; assay type: biochemical; details: read-out: PM-2 IC50
# Method: Plasmepsin-2 (PM-2; Plm II) and Plasmepsin (PM-4; Plm IV) expression and purification was performed following the published protocols (Istvan E S and Goldberg D E, 2005). The final purified protein was activated by diluting the protein to 0.3 mg/mL in activating buffer (0.1 M citrate pH 4.5, 0.1% Tween-20, 50 mM dithiothreitol) and incubated at room temperature for 40 min, then the activated enzyme was diluted in assay buffer (50 mM sodium acetate pH 4.7, 0.01% Tween-20). The enzymatic inhibition reaction was performed in 384 well plates with a total volume of 20 μl. 10 μl of diluted PM-2 or PM-4 enzyme was added to the 384-well plate except blank wells (blank wells add 10 μL of assay buffer) and 20 nL of serials of diluted 1000× compounds were added to the wells with 520 Echo® Liquid Handling System (Labcyte Inc.). 10 μL PM-2 peptide substrate (AnaSpec, Cat#, 62050) with assay buffer was then added to final concentration of 20 μM to start the reaction. After incubation the reaction at room temperature for 60 min, the fluorescence intensity at Ex/Em=360 nm/535 nm was measured using EnVision multilabel plate reader (Perkin-Elmer). The IC50 values were obtained using Graph Pad Prism 4 and are reported in Tables 8 and 9 below as PM-2 IC50 values.
# [2] = tested on: Plasmodium falciparum 3D7 (CQ-sensitive); assay: In vitro antimalarial assay (malaria SYBR Green I-based fluorescence, MSF), 3D7; assay type: cell-based
# Method: Stock solutions of each test drug were prepared in DMSO at a concentration of 20 mM. The drug solutions were serially diluted with culture medium and distributed to asynchronous parasite cultures on 96-well plates in quadruplicate in a total volume of 100 μL to achieve 0.5% parasitemia with a 2% hematocrit in a total volume of 100 pt. […] After incubation, 100 μL of lysis buffer with 0.2 μL/mL SYBR Green I was added to each well.
# Antimalarial potency of compounds was determined by this technique for both Plasmodium falciparum 3D7 (CQ-sensitive) and Dd2 (multi-drug resistant) strains.
# [3] = 3D7, Table 12, read-out: 3D7 IC50
# [4] = 3D7, Table 13, read-out: 3D7 IC50
# [5] = 3D7, Table 10, read-out: Pf3D7 IC50
# [6] = 3D7, Table 11, read-out: Pf 3D7 IC50
# Sequence of Plasmepsin-2 (PM-2; Plm II) (P46925 125-453 limits assumed): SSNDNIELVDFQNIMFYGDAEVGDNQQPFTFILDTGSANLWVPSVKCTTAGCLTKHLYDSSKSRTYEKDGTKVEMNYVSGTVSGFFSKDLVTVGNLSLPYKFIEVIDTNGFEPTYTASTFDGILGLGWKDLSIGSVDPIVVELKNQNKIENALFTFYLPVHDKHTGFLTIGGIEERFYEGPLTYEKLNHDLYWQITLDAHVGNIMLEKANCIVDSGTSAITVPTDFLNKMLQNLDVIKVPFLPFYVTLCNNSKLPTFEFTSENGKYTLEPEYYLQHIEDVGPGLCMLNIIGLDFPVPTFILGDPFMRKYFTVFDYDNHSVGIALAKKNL
Structure (SMILES),IC50 ([1]; Table 12) [nM],"IC50 [2, 3] [nM]",IC50 ([1]; Table 13) [nM],"IC50 [2, 4] [nM]","IC50 [2, 5] [nM]","IC50 [2, 6] [nM]"
"COc1cccc(-c2cccc(C3(C4CC4)NC(=N)N(C)C3=O)c2)c1 (stereo not shown) [Example 330, 5-cyclopropyl-2-imino-5-[3-(3-methoxyphenyl)-phenyl]-3-methyl-imidazolidin-4-one]",751,~2400,,,,
"N=C1NC(c2ccccc2)(c2ccccc2)C(=O)N1C1CC1 [Example 142, 3-cyclopropyl-2-imino-5,5-diphenylimidazolidin-4-one]",,,1790,10800,,
"COc1cccc(C2(c3cccc(OC)c3)NC(=N)N(C3CC3)C2=O)c1 [Example 167, 3-cyclopropyl-2-imino-5,5-bis(3-methoxyphenyl)-imidazolidin-4-one]",,,2830,9320,,
"COc1ccc(C2(c3ccc(OC)cc3)NC(=N)N(Cc3cccnc3)C2=O)cc1 [Example 219, 2-imino-5,5-bis(4-methoxyphenyl)-3-(pyridin-3-ylmethyl)-imidazolidin-4-one]",,,9.62,582,,
"COc1cccc(-c2cccc(C3(c4ccccc4)NC(=N)N(C)C3=O)c2)c1 (stereo not shown) [Example 327, 2-imino-5-[3-(3-methoxyphenyl)phenyl]-3-methyl-5-phenyl-imidazolidin-4-one]",240,4970,,,,
"COc1ccc(C2(c3ccc(OC)cc3)NC(=N)N(C3CCC3)C2=O)cc1 [Example 204, 3-cyclobutyl-2-imino-5,5-bis(4-methoxyphenyl)-imidazolidin-4-one]",,,67.4,722,722,
"COc1ccc(C2(c3ccc(OC)cc3)NC(=N)N(Cc3ccccc3C(F)(F)F)C2=O)cc1 [Example 304, 2-imino-5,5-bis(4-methoxyphenyl)-3-{[2-(trifluoromethyl)-phenyl]methyl}-imidazolidin-4-one]",,,1.88,1340,,
"COc1ccc(C2(c3cccc(-c4ccccc4)c3)NC(=N)N(C3CCCCC3)C2=O)cc1 (stereo not shown) [Example 177, 3-cyclohexyl-2-imino-5-(4-methoxyphenyl)-5-(3-phenylphenyl)-imidazolidin-4-one]",,,11.7,1490,,1490
"COc1ccc(C2(c3ccccc3)NC(=N)N(C3CCCCC3)C2=O)cc1 (stereo not shown) [Example 141, 3-cyclohexyl-2-imino-5-(4-methoxyphenyl)-5-phenylimidazolidin-4-one]",,,10.6,533,,533
"N=C1NC(c2ccccc2)(c2cccc(-c3ccccc3)c2)C(=O)N1C1CCCCC1 (stereo not shown) [Example 212, 3-cyclohexyl-2-imino-5-phenyl-5-(3-phenylphenyl)-imidazolidin-4-one]",,,12.3,1710,,
"Cc1ccc(C2(c3ccc(C)cc3)NC(=N)N(C3CCCCC3)C2=O)cc1 [Example 156, 3-cyclohexyl-2-imino-5,5-bis(4-methylphenyl)-imidazolidin-4-one]",,,14,1260,,1260
"N=C1NC(c2ccccc2)(c2cccc(-c3ccncc3)c2)C(=O)N1C1CCCCC1 (stereo not shown) [Example 211, 3-cyclohexyl-2-imino-5-phenyl-5-[3-(pyridin-4-yl)phenyl]-imidazolidin-4-one]",,,14.1,1030,,
"COc1ccc(C2(c3ccc(OC)c(OC)c3)NC(=N)N(C3CCCCC3)C2=O)cc1OC [Example 173, 3-cyclohexyl-5,5-bis(3,4-dimethoxy-phenyl)-2-imino-imidazolidin-4-one]",,,54.7,614,,
"COc1ccc(C2(c3ccc(OC)cc3)NC(=N)N(Cc3ccccc3)C2=O)cc1 [Example 162, 3-benzyl-2-imino-5,5-bis(4-methoxyphenyl)-imidazolidin-4-one]",,,7.3,855,855,
"N=C1NC(c2ccc(Cl)cc2)(c2ccc(Cl)cc2)C(=O)N1C1CCCCC1 [Example 155, 5,5-bis(4-chlorophenyl)-3-cyclohexyl-2-iminoimidazolidin-4-one]",,,6,1070,,1070
"N=C1NC(c2ccccc2)(c2ccccc2)C(=O)N1Cc1ccccc1 [Example 102, 3-benzyl-2-imino-5,5-diphenyl-imidazolidin-4-one]",,,33.1,8290,8290,
"COc1ccc(C2(c3ccc(OC)cc3)NC(=N)N(Cc3ccncc3)C2=O)cc1 [Example 203, 2-imino-5,5-bis(4-methoxyphenyl)-3-(pyridin-4-ylmethyl)-imidazolidin-4-one]",,,14.9,1130,,
"CCOc1ccc(C2(c3ccc(OCC)cc3)NC(=N)N(C3CCCCC3)C2=O)cc1 [Example 157, 3-cyclohexyl-5,5-bis(4-ethoxyphenyl)-2-iminoimidazolidin-4-one]",,,6.87,466,,466
"COc1ccc(C2(c3ccc(OC)cc3)NC(=N)N(C3CCCC3)C2=O)cc1 [Example 159, 3-cyclopentyl-2-imino-5,5-bis(4-methoxyphenyl)-imidazolidin-4-one]",,,25.1,611,611,
"COc1cccc(C2(c3ccccc3)NC(=N)N(C3CCCCC3)C2=O)c1 (stereo not shown) [Example 153, 3-cyclohexyl-2-imino-5-(3-methoxyphenyl)-5-phenylimidazolidin-4-one]",,,24.9,917,,917
"N=C1NC(c2ccccc2Cl)(c2ccccc2Cl)C(=O)N1C1CCCCC1 [Example 202, 5,5-bis(2-chlorophenyl)-3-cyclohexyl-2-iminoimidazolidin-4-one]",,,6750,349,,
"COc1cccc(C2(c3cccc(-c4cccnc4)c3)NC(=N)N(C3CCCCC3)C2=O)c1 (stereo not shown) [Example 214, 3-cyclohexyl-2-imino-5-(3-methoxyphenyl)-5-[3-(pyridin-3-yl)phenyl]-imidazolidin-4-one]",,,12,787,,787
"COc1ccc(C2(c3ccc(OC)cc3)NC(=N)N(C3CCCCCC3)C2=O)cc1 [Example 220, 3-cycloheptyl-2-imino-5,5-bis(4-methoxyphenyl)-imidazolidin-4-one]",,,2.37,427,427,
"COc1ccc(C2(c3cccc(-c4ccccn4)c3)NC(=N)N(C3CCCCC3)C2=O)cc1 (stereo not shown) [Example 210, 3-cyclohexyl-2-imino-5-(4-methoxyphenyl)-5-[3-(pyridin-2-yl)-phenyl]imidazolidin-4-one]",,,5.47,1810,,1810
"N=C1NC(c2ccc(OC(F)(F)F)cc2)(c2ccc(OC(F)(F)F)cc2)C(=O)N1C1CCCCC1 [Example 201, 3-cyclohexyl-2-imino-5,5-bis[4-(trifluoromethoxy)-phenyl]imidazolidin-4-one]",,,55.1,2200,,2200
"N=C1NC(c2ccccc2)(c2ccccc2)C(=O)N1C1CCOCC1 [Example 198, 2-imino-3-(oxan-4-yl)-5,5-diphenyl-imidazolidin-4-one]",,,118,> 2500,,
"COc1ccc(C2(c3ccc(OC)cc3)NC(=N)N(Cc3cccc(C)c3C)C2=O)cc1 [Example 277, 3-[(2,3-dimethyl-phenyl)methyl]-2-imino-5,5-bis(4-methoxyphenyl)-imidazolidin-4-one]",,,4.39,1570,,
"COc1ccc(C2(c3ccc(OC)cc3)NC(=N)N(Cc3ccccc3C)C2=O)cc1 [Example 303, 2-imino-5,5-bis(4-methoxyphenyl)-3-[(2-methylphenyl)-methyl]imidazolidin-4-one]",,,3.1,1010,,

# — patent US9353089B2, “Compositions and methods for the treatment of malaria” (Saint Louis University, priority 2013, dated 2016)
